Results taken from PMC12114375, “Discovery of Hydrazineyl Amide Derivative of Pseudolaric Acid B for Reprogramming Tumor-Associated Macrophages Against Tumor Growth” (Molecules, 2025).

Legend:
[1] = tested on: CD8+ T cell proliferation and activation suppressed by M2-like BMDMs; assay: CD8+ T cell suppression assay (BMDM / spleen cell co-culture); assay type: cell-based, mouse; settings: BMDMs pretreated 48 h, co-cultured 48 h with anti-CD3/CD28-stimulated spleen cells
Method: Pro-tumoral M2-like TAMs are well-known to directly suppress CD8^+ T cell proliferation and activation. When they were co-cultured with autologous spleen cells, as expected, the IL-4/IL-13-induced BMDMs suppressed the proliferation and activation of CD8^+ T cells.
Spleen cells were isolated from C57BL/6 mice, followed by red blood cell (RBC) lysis. BMDMs were induced into M2-like macrophages and treated with different concentrations of compound 1 for 48 h. Then, 2 × 10^5 spleen cells/well were stimulated with αCD3/αCD28 and co-cultured with 2 × 10^4 pro-treated BMDMs in 96-well plates in LCM (RPMI 1640 with […] 2-mercaptoethanol and 10% fetal bovine serum) at 37 °C. After 48 h, the spleen cells were treated with the eBioscience™ Cell Stimulation Cocktail (plus protein transport inhibitors) for 4 h, and cell activation was then determined by the proportion of IFNγ^+ CD8^+ T cells and GRZB^+ CD8^+ T cells in CD8^+ T cells measured using flow cytometry. Cell proliferation was determined by the proportion of Ki67^+ CD8^+ T cells in CD8^+ T cells using flow cytometry.
Figure 3 Compound 12 reverses macrophage-mediated CD8^+ T cell suppression. […] The ratios of Ki67^+ CD8^+ T cells (A), IFNγ^+ CD8^+ T cells, and granzyme B^+ CD8^+ T cells (B) in total CD8^+ T cells were assessed using flow cytometry. […]

[2] = tested on: ARG1 mRNA expression in RAW 264.7 cells; assay: qRT-PCR of ARG1 mRNA in IL-4/IL-13-stimulated RAW 264.7 cells; assay type: cell-based, mouse; settings: Mus musculus, RAW264.7, IL-4/IL-13 (20 ng/mL) plus compound 10 μM, 12 h, stimulated control = 100%, mean ± SD, read-out: ARG1 mRNA Relative Expression (%)
Text: We first investigated the impacts of a series of commercially available natural pseudolaric acids or their O-pyranosides (Figure 1) on the pro-tumoral phenotype of TAMs, which play a critical role in anti-tumor immune response modulation. […] In contrast, M1-biased macrophages combat tumor growth and bacterial infections by expressing inducible nitric oxide synthase 2 (NOS2), which catalyzes the production of nitric oxide (NO). Recognizing the pivotal roles of ARG1 and NOS2, we utilized these molecules as key biomarkers and effectors for assessing macrophage immune function. In our experiments, the mouse monocyte–macrophage leukemia cell line RAW 264.7 was induced with IL-4/IL-13 to acquire an M2-like pro-tumoral phenotype. Concurrently, the cells were treated with the pseudolaric acid-related natural products 1–7 at a concentration of 10 μM for 12 h. Additionally, PLX3397 was used as a positive control at a concentration of 0.5 μM. […] As shown in Table 1 and Figure S1A, pseudolaric acid B (1), its deacetoxyl analogue 2 (pseudolaric acid C), and β-D-glucoside 7 substantially attenuated the upregulation of ARG1 mRNA expression induced by IL-4/IL-13, with statistically significant effects. In contrast, bis-carboxylic acids analogs 4 (pseudolaric acid C2) and 6 (demethoxydeacetoxypseudolaric acid B) have no significant impact on ARG1 mRNA expression.
With these carboxylic acid-modified derivatives in hand, we investigated their impact at 10 μM on ARG1 and NOS2 mRNA expression in RAW 264.7 cells pre-stimulated with IL-4/IL-13 to evaluate the effects on the pro-tumor phenotype of macrophages. […] Further removal of one hydroxyl from the glycerol moiety 15 further enhanced the inhibitory effect on ARG1 expression but had no significant impact on NOS2 expression.
Total RNA was isolated from cells using the EZ-press RNA Purification Kit (EZBioscience, Suzhou, China) and subjected to reverse transcription with the 5×HiScript II qRT SuperMix II (Vazyme, Nanjing, China). PCR was performed with the 2×ChamQ Universal SYBR qPCR Master Mix (Vazyme, Nanjing, China). All primers for qRT-PCR are described in Table S1. The 2^−∆∆Ct method was utilized to calculate the fold change in gene expression, with the expression levels in the stimulated group set as the baseline for normalization.

Question: `COC(=O)C1=CC[C@@]23CC[C@@H]([C@@](C)(/C=C/C=C(\C)C(=O)NNCCO)OC2=O)[C@@]3(OC(C)=O)CC1` [compound 12, Methyl(3R,4S,4aS,9aR)-4a-acetoxy-3-((1E,3E)-5-(2-(2-hydroxyethyl)hydrazineyl)-4-methyl-5-oxopenta-1,3-dien-1-yl)-3-methyl-1-oxo-3,4,4a,5,6,9-hexahydro-1H-4,9a-ethanocyclohepta[c]pyran-7-carboxylate] was tested. Which “inhibitory effects of IL-4/IL-13-induced BMDMs on CD8+ T cell proliferation and activation (Ki67+, IFNγ+, GRZB+ CD8+ T cells)” value [1] did it give?
Answer: Its value is “dose-dependently reversed”.

Question: What about the mrna remaining at 10 µM [2] of the same compound?
Answer: Its mrna remaining at 10 µM is 1.4 ± 1.1%.
